This is an account of results in patent US20250206751A1, “HETEROCYCLIC COMPOUND FOR INDUCING DEGRADATION OF G12D MUTANT KRAS PROTEIN” (Astellas Pharma Inc., priority 2022, published 2025).

In assay [1] the test system is phosphorylation of threonine 202 (Thr202) and tyrosine 204 (Tyr204) of ERK. As to the kind of experiment: ERK phosphorylation inhibitory effect by Cell ELISA in AsPC-1 (Test Example 2). Type of assay: cell-based, human. Particulars: Homo sapiens, ASPC1, AsPC-1 cells, cultured overnight with compound; 1 μM trametinib taken as 0%. In outline: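 AsPC-1 cells (G12D KRAS) treated overnight with compound (10 points, 10 μM to 0.3 nM final), then glyoxal-fixed and immunostained for phospho-ERK with a fluorescent secondary read at 800 nm. IC50 by Sigmoid-Emax regression, with DMSO as 100% and 1 μM trametinib as 0%.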
In general terms: ELISA stands for enzyme-linked immunosorbent assay.

In assay [2] the target is T1, KRAS G12D protein (Homo sapiens, UniProt P01116, G12D).
T1 construct: host or cells: AsPC-1
T1 sequence (P01116 1-188 isoform P01116-2 G12D): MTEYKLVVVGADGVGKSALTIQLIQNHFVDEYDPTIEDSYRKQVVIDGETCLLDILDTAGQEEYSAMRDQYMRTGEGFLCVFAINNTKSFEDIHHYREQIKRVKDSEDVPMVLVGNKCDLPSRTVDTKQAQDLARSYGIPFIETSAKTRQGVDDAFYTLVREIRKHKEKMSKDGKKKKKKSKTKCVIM
As to the kind of experiment: KRAS degradation activity by Cell ELISA in AsPC-1 (Test Example 1). The assay is classed as cell-based. Particulars: AsPC-1 cells, cultured overnight with compound, corrected with β-actin, read-out: DC50 (50% degradation concentration of the amounts of KRAS). In outline: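 AsPC-1 cells (KRAS G12D), 2.0×10^4/well, treated overnight with compound (10 points, 10 μM–0.3 nM final) in RPMI 1640/10% FBS. Fixed cells immunostained for G12D-specific Ras and β-actin, with near-IR fluorescence read. Ras/actin ratio scaled DMSO = 0% and actin-only = 100%, and DC50 fitted by Sigmoid-Emax regression.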

For assay [3], the system named is human G12D mutant KRAS-positive pancreatic cancer line AsPC-1. The assay is described as follows: Non-anchorage-dependent cell growth inhibition, spheroid 3D cell culture (Test Example 3). The assay is classed as cell-based. Conditions: Homo sapiens, ASPC1, 144 h, AsPC-1 spheroid 3D culture, 6 days, CellTiter Glo 2.0. In outline: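 AsPC-1 spheroids, 5×10^2 cells per well on low-adhesion round-bottom plates in RPMI 1640/10% FBS, dosed next day at 10 or 6 points spanning 10 μM to 0.3 nM final for 6 days at 37° C., 5% CO2. Viability by CellTiter Glo 2.0 luminescence; IC50 by Sigmoid-Emax regression, DMSO 100% and cell-free medium 0%.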
In general terms: In ATP-based viability assays light output follows the ATP content of the culture.

Regarding `Cc1ncsc1-c1ccc([C@H](CO)NC(=O)[C@@H]2C[C@@H](O)CN2C(=O)[C@H](C(C)C)n2cc(-c3ccc(COc4c(-c5c(C)c(F)cc6[nH]ncc56)c(C5CC5)cc5c(N(C)[C@H]6CCNC6)nc(OCC(C)C)nc45)cc3)nn2)cc1` (atropisomer, axis not shown) [Example 34], the figures for the IC50 in assay [1] and in assay [3] were 21 nM and 13 nM, respectively. Further, the DC50 in assay [2] stood at 53 nM.
On to `COCCOc1nc(N(C)[C@H]2CCNC2)c2cc(C3CC3)c(-c3c(C)c(F)cc4[nH]ncc34)c(OCc3ccc(-c4cn([C@H](C(=O)N5C[C@H](O)C[C@H]5C(=O)N[C@@H](CO)c5ccc(-c6scnc6C)cc5)C(C)C)nn4)cc3)c2n1` (atropisomer, axis not shown) [Example 24], for which the IC50 in assay [1] came out at 15 nM; in assay [3], 26 nM. The DC50 in assay [2] came out at 48 nM.
`Cc1ncsc1-c1ccc([C@H](CO)NC(=O)[C@@H]2C[C@@H](O)CN2C(=O)[C@H](C(C)C)n2cc(-c3ccc(COc4c(-c5c(C)c(F)cc6[nH]ncc56)c(C5CC5)cc5c(N(C)[C@H]6CCNC6)nc(OCC(C)(F)F)nc45)cc3)nn2)cc1` (atropisomer, axis not shown) [Example 36]: the half-inhibitory concentration (IC50) was found to be 21 nM in assay [1] and 19 nM in assay [3]. Moreover, in assay [2], the DC50 is 82 nM.
For `CO[C@@H](C)COc1nc(N(C)[C@H]2CCNC2)c2cc(C3CC3)c(-c3c(C)c(F)cc4[nH]ncc34)c(OCc3ccc(-c4cn([C@H](C(=O)N5C[C@H](O)C[C@H]5C(=O)N[C@@H](CO)c5ccc(-c6scnc6C)cc5)C(C)C)nn4)c(F)c3)c2n1` (atropisomer, axis not shown; (M)) [Example 44], the IC50 in assay [1] worked out at 31 nM; in assay [3], 17 nM. In assay [2], the DC50 was determined as 43 nM.

Broadly, the IC50 is the concentration needed to halve the response being measured.
